Measured values reported in PMC8629924 (Nature chemistry, 2021).

Target: T1, MaNifB (Methanosarcina acetivorans, UniProt Q8TIF7)
T1 sequence (Q8TIF7 1-323): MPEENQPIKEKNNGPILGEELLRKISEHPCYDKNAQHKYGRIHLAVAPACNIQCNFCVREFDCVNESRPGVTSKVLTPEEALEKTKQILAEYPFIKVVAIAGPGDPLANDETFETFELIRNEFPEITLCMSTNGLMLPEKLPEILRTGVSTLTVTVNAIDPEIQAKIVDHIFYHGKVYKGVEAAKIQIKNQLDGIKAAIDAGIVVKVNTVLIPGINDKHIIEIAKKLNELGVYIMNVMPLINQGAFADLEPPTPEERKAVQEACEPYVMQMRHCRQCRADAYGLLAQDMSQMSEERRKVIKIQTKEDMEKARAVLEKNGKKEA
Conditions: K-cluster-loaded MaNifB; dithionite-reduced or IDS-oxidized

Question: With `C[S+](CC[C@H](N)C(=O)O)C[C@H]1O[C@@H](n2cnc3c(N)ncnc32)[C@H](O)[C@@H]1O` (stereo partly shown) [SAM] as the molecule, how does the “CW EPR and 3-pulse ESEEM of K- to L*-cluster conversion” value read?
Answer: Its value is “SAM-treated MaNifB (designated MaNifB-L*) displayed a distinct change in the line-shape”.
